# Reference: patent US6436988B1, “Use of 3-(2,4,6-trimethylphenyl)-4-neopentylcarbonyloxy-5,5- tetramethylene-Δ3-dihydrofuran-2-one for controlling the white fly” (Bayer Aktiengesellschaft, priority 1999, dated 2002)
# System: white fly Bemisia tabaci
# Test: Bemisia test
# Assay type: in vivo
# Conditions: concentration of active compound 0.0008 %, infested cotton plants (Gossypium hirsutum) with eggs, larvae and pupae dipped into preparation
# Protocol: Solvent: 7.5 parts by weight of dimethylformamide
# Emulsifier: 2.5 parts by weight of alkylaryl polyglycol ether
# To produce a suitable preparation of active compound, 1 part by weight of active compound is mixed with the stated amounts of solvent and emulsifier, and the concentrate is diluted with water to the desired concentrations.
# Cotton plants (Gossypium hirsutum) infested by eggs, larvae and pupae of the white fly Bemisia tabaci are dipped into a preparation of active compound of the desired concentration.
# After the desired period of time, the kill in % is determined. 100% means that all animals have been killed; 0% means that none of the animals have been killed.
row,Compound,Kill in % after 14 days
1,Cc1cc(C)c(C2=C(OC(=O)C(C)(C)C)C3(CCCC3)OC2=O)c(C)c1,0%
2,Cc1cc(C)c(C2=C(OC(=O)CC(C)(C)C)C3(CCCCC3)OC2=O)c(C)c1,50%
3,Cc1cc(C)c(C2=C(OC(=O)CC(C)C)C3(CCCC3)OC2=O)c(C)c1,0%
4,"Cc1cc(C)c(C2=C(OC(=O)CC(C)(C)C)C3(CCCC3)OC2=O)c(C)c1 [formula (I), 3-(2,4,6-Trimethylphenyl)-4-neopentylcarbonyloxy-5,5-tetramethylene-Δ^3-dihydrofuran-2-one]",95%
